Consider two compounds from patent publication US20130115178A1, “TANNING ENHANCERS AND SELF-TANNING SUBSTANCES” (MERCK PATENT GESELLSCHAFT MIT BESCHRANKTER HAFTUNG, priority 2010, published 2013).

The structures appear in SMILES notation. Values joined by “and” are separate entries in the source; they are usually repeats but may differ in a detail not shown here. Equal entries are not always repeated.

The test system of assay [1] is explants from the stomach tissue of a pale-skinned person (type). Briefly: Ex-vivo study: chromametric colour measurement of skin explants. Set-up: species or system human; key to b / a: CIE L*a*b* colour coordinates, Minolta CR-300 chromameter, D65. On the procedure: 12 explants from the stomach tissue of a pale-skinned person (type) having an average diameter of 10 mm are prepared (reference: P831-AB49).
The explants are kept in a BEM medium (B10-EC's explants medium) at 37° C. in a moist atmosphere comprising 5% of CO2.
The following samples are tested: (in each case 3 explants), where the solutions of the corresponding substances used comprise 90% of water and 10% of ethanol.
Glucuronolactone is employed in the bicyclic form.
2 μl of the respective sample are added to the explants and distributed for the first time (D0), 1 day later (D1), 2 days later (D2), 3 days later (D3) and 4 days later (D4). The colour of the explants is determined chromametrically. The measurements are carried out on addition (D0), on day 1 (D1), on day 5 (D5) and on day 11 (D11).
The colour measurements are carried out using a Minolta CR-300 Chroma-meter, and the L, a and b values are read off correspondingly on the instrument.
The following parameters are set:
A colour area is present here which is viewed at a viewing angle of 2 degrees. This viewing angle is used as standard in the chromametric measurement. • Irradiation source D65, corresponding to daylight • Region of the measurement: 3 mm • Parameters used: L*a*b*
The sample is placed on the bearing rail with the epidermis facing downwards. The irradiation is carried out from the underside through the area indicated (3 mm).
In the colorimetric determinations <<L a b>>, the L value determines the contrast of the skin. If the L value drops, the skin appears darker.
Δa after one day is calculated as follows: […]

Assay [2] has the same test system. Described as above. On the set-up: species or system human; key: change in the L*a*b* a value from D0. The settings on record: D5 vs D0; single explants; listed as P2.
In assay [3] the test system is B16V mouse melanoma cells. Briefly: B16 V mouse melanoma cell test (melanin concentration). In kind it is cell-based. The settings on record: for Melanin concentration %: relative to blank DMSO + α-MSH = 100%. Here is the method: Description of the performance of the B16 V mouse melanoma cell test:
B16V mouse melanoma cells (manufacturer: DSMZ; Article No,: ACC370) in RPMI medium (Invitrogen, Article No.: 31870), to which 10% of FBS (foetal bovine serum, Invitrogen, Article No: 10499044), 2 mM L-glutamine (Invitrogen, Article No: 25030) and 1 mM sodium pyruvate (Invitrogen, Article No:11360) had additionally been added (modified RPMI medium), are transferred into a culture bottle and incubated at 37° C. and 5% CO2 for 72 h. The medium is separated off, and the cells are washed with 10 ml of D-PBS (Invitrogen, Article No. 14190) and subsequently filtered off with suction. 1 ml of HyQtase cell detachment solution (Hyclone, Article No. SV30030.01) is added to the cells. The bottle is swirled a number of times, and the HyQtase cell detachment solution is subsequently removed by suction. The cells are then incubated in the incubator at 37° C. and 5% CO2 for 5 min. The cells are taken up in the modified RPMI medium (Invitrogen, Article No.: 31870), and the cell count is determined. To this end, the cells are stained with Tryptan Blue and counted in a Neubauer chamber. The cells are subsequently sown out again in the modified RPMI medium in a defined cell count of 80,000 cells per well (6-well clear plate, TCT, PS (Nunc)).
The plate is subsequently incubated at 37° C. and 5% CO2 for 24 h, the medium is then removed. […]
After the final incubation period, the medium is removed by suction, and the cells are washed with 1000 μl of D-PBS (Invitrogen, Article No. 14190). […] The cell count is subsequently determined. To this end, the cells are stained with Tryptan Blue and counted in a Neubauer chamber. […] 200 μl are then pipetted as quadruple determination (per cup) into a 96-well plate (VWR, Article No. 4100636981), and the absorption at a wavelength of 405 nm is determined. […] The content of melanin can be determined in this way by means of a calibration line.
The other values were determined relative to the blank sample with dimethyl sulfoxide (DMSO) and a-MSH, whose measurement was set at 100%

Assay [4] can be described thus: In-vitro investigation of DHA and DHA/glucuronolactone (Liquidskin model, L-a-b values). The settings on record: 37° C., pH 7.
[5] abbreviates: D0 (on addition), single explants, n=3, listed as P2.
Setting [6] is: D1, single explants, n=3, listed as P2.
Setting [7] is: D5, single explants, n=3, listed as P2.
Setting [8] is: D11, single explants, n=3, listed as P2.

Take `O=C[C@H](O)[C@H]1OC(=O)[C@@H](O)[C@H]1O` [Glucuronolactone]: the L in assay [1] (setting [5]) was 64.07 and 62.49 and 62.34; in assay [1] (setting [6]), 65.12 and 64.59 and 62.71; in assay [1] (setting [7]) it was 62.73 and 63.62 and 63.56; in assay [1] (setting [8]), 64.22 and 65.7 and 62.69. The b in assay [1] (setting [5]) is 17.1 and 17.34 and 16.15; in assay [1] (setting [6]) it was 17.81 and 17.14 and 16.29; in assay [1] (setting [7]), 16.51 and 16.88 and 15.95; in assay [1] (setting [8]) it was 14.34 and 15.04 and 15.57. Moreover, the a in assay [1] (setting [8]) was 1.87 and 2.44 and 2.65. The “skin colour in comparison with the untreated sample” value in assay [1] (explants, glucuronolactone 1%) was “darkening of the skin”. Besides, the Δa in assay [2] is 0.25 and 0.22 and 0.26. The Melanin concentration % in assay [3] (10 mM + α-MSH (10^−8 M)) was 46.9%; in assay [3] (10 mM, without α-MSH), 56.7%. Moreover, in assay [3] (cell culture tests with B16V mouse melanoma cells), the “melanin production” value is “reduce melanin production”.
On to `O=C(CO)CO` [DHA, 1,3-dihydroxyacetone], for which, in assay [4] (after 6 hours), the L turned out to be 86.1, the a amounted to 13.4 and the b amounted to 39.9. In assay [4] (after 24 hours), the L is 61.3, the a worked out at 31.7 and the b was 75.0. In assay [4] (after one hour), this compound gave an L of 99.4, an a of 0.4 and a b of 1.3.
